{"source": "patent US7569517B2", "about": "“4-biphenyl-substituted pyrazolidin-3 5-diones pesticide agent and/or microbicide and/or herbicide” (Bayer CropScience AG, priority 2003, dated 2009)", "format_in_all_cases": "in vivo", "key": {"[1]": {"system": "green peach aphid (Myzus persicae)", "assay": "Myzus test (spray treatment) (Example B)", "conditions": "sprayed Chinese cabbage discs", "experimental": "Myzus Test (Spray Treatment)\n(§1) • Solvents: 78 parts by weight of acetone • 1.5 parts by weight of dimethylformamide • Emulsifier: 0.5 part by weight of alkylaryl polyglycol ether\nTo produce a suitable preparation of active compound, 1 part by weight of active compound is mixed with the stated amounts of solvent and emulsifier, and the concentrate is diluted with emulsifier-containing water to the desired concentration.\nDiscs of Chinese cabbage (Brassica pekinensis) which are infested by all stages of the green peach aphid (Myzus persicae) are sprayed with a preparation of active compound of the desired concentration.\nAfter the desired period of time, the activity in % is determined. 100% means that all aphids have been killed; 0% means that none of the aphids have been killed."}, "[2]": {"system": "caterpillars of the army worm (Spodoptera frugiperda)", "assay": "Spodoptera frugiperda test (spray treatment) (Example D)", "conditions": "sprayed maize leaf discs", "experimental": "Spodoptera Frugiperda Test (Spray Treatment)\nas §1\n(§2) To produce a suitable preparation of active compound, 1 part by weight of active compound is mixed with the stated amounts of solvents and emulsifier, and the concentrate is diluted with emulsifier-containing water to the desired concentration.\nDiscs of maize leaves (Zea mays) are sprayed with a preparation of active compound of the desired concentration and, after they have dried, populated with caterpillars of the army worm (Spodoptera frugiperda).\nAfter the desired period of time, the activity in % is determined. 100% means that all caterpillars have been killed; 0% means that none of the caterpillars have been killed."}, "[3]": {"system": "greenhouse red spider mite (Tetranychus urticae)", "assay": "Tetranychus test (OP-resistance/spray treatment) (Example E)", "conditions": "sprayed bean leaf discs", "experimental": "Tetranychus Test (OP-resistance/Spray Treatment)\nas §1\nTo prepare a suitable preparation of active compound, 1 part by weight of active compound is mixed with the stated amounts of solvents and emulsifier, and the concentrate is diluted with emulsifier-containing water to the desired concentration.\nDiscs of bean leaves (Phaseolus vulgaris) which are infested by all stages of the greenhouse red spider mite (Tetranychus urticae) are sprayed with a preparation of active compound of the desired concentration.\nAfter the desired period of time, the activity in % is determined. 100% means that all spider mites have been killed; 0% means that none of the spider mites have been killed."}, "[4]": {"system": "larvae of the mustard beetle (Phaedon cochleariae)", "assay": "Phaedon test (spray treatment) (Example C)", "conditions": "sprayed Chinese cabbage discs", "experimental": "Phaedon Test (Spray Treatment)\nas §1, §2\nAfter the desired period of time, the activity in % is determined. 100% means that all beetle larvae have been killed; 0% means that none of the beetle larvae have been killed."}}, "data": [{"smiles": "Cc1ccc(-c2ccc(F)c(Cl)c2)cc1C1(Cl)C(=O)N2CCOCCN2C1=O", "note": "[Ex. I-2-18]", "values": [{"measurement": "Kill rate in % after 5d", "setting": "[1]; 500 g/ha", "result": 90, "unit": "%"}, {"measurement": "Kill rate in % after 7d", "setting": "[2]; 500 g/ha", "result": 100, "unit": "%"}]}, {"smiles": "COc1ccc(Cl)cc1-c1ccc(C)c(C2(Cl)C(=O)N3CCCCN3C2=O)c1", "note": "[Ex. I-1-34]", "values": [{"measurement": "Kill rate in % after 5d", "setting": "[1]; 500 g/ha", "result": 100, "unit": "%"}]}, {"smiles": "Cc1ccc(-c2ccc(Cl)cc2Cl)cc1C1(Cl)C(=O)N2CCCCN2C1=O", "note": "[Ex. I-1-13]", "values": [{"measurement": "Kill rate in % after 5d", "setting": "[3]; 500 g/ha", "result": 100, "unit": "%"}, {"measurement": "Kill rate in % after 5d", "setting": "[1]; 500 g/ha", "result": 90, "unit": "%"}]}, {"smiles": "Cc1ccc(-c2ccc(F)cc2)cc1C1(Cl)C(=O)N2CCOCCN2C1=O", "note": "[Ex. I-2-7]", "values": [{"measurement": "Kill rate in % after 5d", "setting": "[3]; 100 g/ha", "result": 90, "unit": "%"}, {"measurement": "Kill rate in % after 7d", "setting": "[2]; 100 g/ha", "result": 100, "unit": "%"}]}, {"smiles": "Cc1ccc(-c2ccc(F)cc2F)cc1C1(Cl)C(=O)N2CCOCCN2C1=O", "note": "[Ex. I-2-16]", "values": [{"measurement": "Kill rate in % after 5d", "setting": "[1]; 500 g/ha", "result": 100, "unit": "%"}, {"measurement": "Kill rate in % after 7d", "setting": "[2]; 500 g/ha", "result": 100, "unit": "%"}]}, {"smiles": "Cc1ccc(-c2cccc(F)c2)cc1C1(Cl)C(=O)N2CCCCN2C1=O", "note": "[Ex. I-1-8]", "values": [{"measurement": "Kill rate in % after 5d", "setting": "[3]; 500 g/ha", "result": 100, "unit": "%"}, {"measurement": "Kill rate in % after 7d", "setting": "[2]; 500 g/ha", "result": 100, "unit": "%"}]}, {"smiles": "COc1ccc(Cl)c(-c2ccc(C)c(C3(Cl)C(=O)N4CCOCCN4C3=O)c2)c1", "note": "[Ex. I-2-23]", "values": [{"measurement": "Kill rate in % after 5d", "setting": "[1]; 500 g/ha", "result": 100, "unit": "%"}]}, {"smiles": "Cc1ccc(-c2cccc(F)c2)cc1C1(Cl)C(=O)N2CCOCCN2C1=O", "note": "[Ex. I-2-6]", "values": [{"measurement": "Kill rate in % after 5d", "setting": "[1]; 500 g/ha", "result": 90, "unit": "%"}, {"measurement": "Kill rate in % after 7d", "setting": "[4]; 500 g/ha", "result": 100, "unit": "%"}]}, {"smiles": "Cc1ccc(-c2ccc(Cl)cc2)cc1C1(Cl)C(=O)N2CCCCN2C1=O", "note": "[Ex. I-1-6]", "values": [{"measurement": "Kill rate in % after 7d", "setting": "[2]; 500 g/ha", "result": 100, "unit": "%"}, {"measurement": "Kill rate in % after 7d", "setting": "[4]; 500 g/ha", "result": 100, "unit": "%"}]}, {"smiles": "COc1ccc(-c2ccc(C)c(C3(Cl)C(=O)N4CCOCCN4C3=O)c2)cc1Cl", "note": "[Ex. I-2-35]", "values": [{"measurement": "Kill rate in % after 5d", "setting": "[1]; 500 g/ha", "result": 100, "unit": "%"}]}, {"smiles": "Cc1ccc(-c2ccc(F)cc2)cc1C1(Cl)C(=O)N2CCCCN2C1=O", "note": "[Ex. I-1-1]", "values": [{"measurement": "Kill rate in % after 5d", "setting": "[1]; 100 g/ha", "result": 100, "unit": "%"}, {"measurement": "Kill rate in % after 7d", "setting": "[4]; 100 g/ha", "result": 100, "unit": "%"}]}, {"smiles": "Cc1ccc(-c2ccc(C(F)(F)F)cc2)cc1C1(Cl)C(=O)N2CCOCCN2C1=O", "note": "[Ex. I-2-21]", "values": [{"measurement": "Kill rate in % after 7d", "setting": "[2]; 500 g/ha", "result": 100, "unit": "%"}]}, {"smiles": "Cc1ccc(-c2ccc(F)cc2F)cc1C1(Cl)C(=O)N2CCCCN2C1=O", "note": "[Ex. I-1-17]", "values": [{"measurement": "Kill rate in % after 5d", "setting": "[1]; 500 g/ha", "result": 90, "unit": "%"}, {"measurement": "Kill rate in % after 7d", "setting": "[4]; 500 g/ha", "result": 100, "unit": "%"}]}, {"smiles": "Cc1ccc(-c2ccccc2F)cc1C1(Cl)C(=O)N2CCCCN2C1=O", "note": "[Ex. I-1-7]", "values": [{"measurement": "Kill rate in % after 5d", "setting": "[1]; 500 g/ha", "result": 90, "unit": "%"}, {"measurement": "Kill rate in % after 7d", "setting": "[4]; 500 g/ha", "result": 100, "unit": "%"}]}, {"smiles": "Cc1ccc(-c2ccc(Oc3ccccc3)cc2)cc1C1(Cl)C(=O)N2CCOCCN2C1=O", "note": "[Ex. I-2-29]", "values": [{"measurement": "Kill rate in % after 5d", "setting": "[1]; 500 g/ha", "result": 100, "unit": "%"}]}, {"smiles": "Cc1ccc(-c2ccccc2Cl)cc1C1(Cl)C(=O)N2CCOCCN2C1=O", "note": "[Ex. I-2-2]", "values": [{"measurement": "Kill rate in % after 7d", "setting": "[2]; 500 g/ha", "result": 100, "unit": "%"}]}]}
